Data on ten molecules can be found in US20240336654A1, “ANTIMICROBIAL PEPTIDOMIMETICS” (SPEXIS AG, priority 2021, published 2024).

Where a SMILES comes first, the peptide text is derived from it. Bridges are numbered along the chain shown (N, C = ends). [ ]: non-standard residue; d: D form. The star is where a group is joined. Val(Nα-amidino) = CC(C)[C@H](NC(=N)N)C(=O)*; Hyp = O=C(O)[C@@H]1C[C@@H](O)CN1; Cit = NC(=O)NCCC[C@H](N)C(=O)O; Pen = CC(C)(S)[C@H](N)C(=O)O; dDab = NCC[C@@H](N)C(=O)O; Orn = NCCC[C@H](N)C(=O)O; Dab = NCC[C@H](N)C(=O)O; Abu = CC[C@H](N)C(=O)O

Format in all cases: cell-based
The subject of data set [1] is Escherichia coli ATCC 25922. The note with it: ATCC 25922. In outline: (§1)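 The MIC is the lowest peptide concentration, in μg/mL, with no visible growth after 18-20 h incubation at 35 °C. Serial two-fold peptide dilutions in water with 0.002% P-80 final were added to bacteria in cation-adjusted MHII broth, about 5×10^5 CFU/mL, following modified CLSI microdilution.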

Data set [2] relates to Escherichia coli MCR-1 Af 45. The note with it: MCR-1 Af 45. In outline:
as §1

Data set [3] deals with Klebsiella pneumoniae SSI3010. The conditions noted are these: SSI3010. In outline:
as §1

Data set [4] relates to human red blood cells (hRBC). The note with it: red cells of human, 1 h, 200 μg/mL. In outline: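 Peptides at 200 μg/mL incubated 1 h at 37 °C with 20% (v/v) washed human RBC, shaking. Hemolysis from supernatant OD540, expressed as percent of 2.5% Triton X-100 lysis, with PBS as 0%.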

`CC[C@H](C)[C@H](NC(=O)[C@@H]1C[C@@H](O)CN1C(=O)[C@@H](N)C(C)C)C(=O)N[C@@H]1C(=O)N[C@@H](Cc2ccc(O)cc2)C(=O)N[C@@H](CO)C(=O)N[C@@H](CCC(=O)O)C(=O)N[C@@H](CCCNC(=N)N)C(=O)N[C@@H](CCN)C(=O)N[C@@H]([C@@H](C)O)C(=O)N[C@H](CCN)C(=O)N[C@@H](CCCCN)C(=O)N[C@@H](CCN)C(=O)N[C@@H](CCN)C(=O)N[C@H](C(=O)N[C@@H](Cc2ccc(O)cc2)C(=O)O)CSSC1(C)C` [Example 22, Val-Hyp-Ile-Pen-Tyr-Ser-Glu-Arg-Dab-Thr-^DDab-Lys-Dab-Dab-Cys-Tyr] (H-V[Hyp]I[Pen]YSER[Dab]T[dDab]K[Dab][Dab]CY-OH; disulfide 4-15): the “Escherichia coli ATCC 25922 MIC” value in data set [1] was 0.5 µg/mL. The “Escherichia coli MCR-1 Af45 MIC” value in data set [2] stood at 0.25 µg/mL. The “Klebsiella pneumoniae SSI3010 MIC” value in data set [3] came to 0.5 µg/mL. The “Hemolysis at 0.2 g/L” value in data set [4] is <1%.
`CC[C@H](C)[C@H](NC(=O)[C@@H]1C[C@@H](O)CN1C(=O)[C@@H](NC(=N)N)C(C)C)C(=O)N[C@@H]1C(=O)N[C@@H](Cc2ccc(O)cc2)C(=O)N[C@@H]([C@@H](C)O)C(=O)N[C@@H](CC(N)=O)C(=O)N[C@@H](CCCNC(=N)N)C(=O)N[C@@H](CCN)C(=O)N[C@@H]([C@@H](C)O)C(=O)N[C@H](CCN)C(=O)N[C@@H](CCCCN)C(=O)N[C@@H](CCN)C(=O)N[C@@H]([C@@H](C)O)C(=O)N[C@H](C(=O)N[C@@H](Cc2ccc(O)cc2)C(=O)O)CSSC1(C)C` [Example 131, Gua-Val-Hyp-I-Pen-Tyr-Thr-Asn-Arg-Dab-Thr-^DDab-Lys-Dab-Thr-Cys-Tyr] ({Val(Nα-amidino)}-[Hyp]I[Pen]YTNR[Dab]T[dDab]K[Dab]TCY-OH; disulfide 3-14): the “Escherichia coli ATCC 25922 MIC” value in data set [1] was determined as 0.25 µg/mL. Besides, the “Escherichia coli MCR-1 Af45 MIC” value in data set [2] was 0.125 µg/mL. In data set [3], the “Klebsiella pneumoniae SSI3010 MIC” value was determined as 0.5 µg/mL. Besides, in data set [4], the “Hemolysis at 0.2 g/L” value is given as <1%.
In the same order, the values of `CC[C@H](C)[C@H](NC(=O)[C@@H]1C[C@@H](O)CN1C(=O)[C@@H](N)C(C)C)C(=O)N[C@@H]1C(=O)N[C@@H](Cc2ccc(O)cc2)C(=O)N[C@@H]([C@@H](C)O)C(=O)N[C@@H](CC(N)=O)C(=O)N[C@@H](CCCNC(=N)N)C(=O)N[C@@H](CCN)C(=O)N[C@@H](CC(N)=O)C(=O)N[C@H](CCN)C(=O)N[C@@H](CCCCN)C(=O)N[C@@H](CCN)C(=O)N[C@@H](CCN)C(=O)N[C@H](C(=O)N[C@@H](Cc2ccc(O)cc2)C(=O)O)CSSC1(C)C` [Example 19, Val-Hyp-Ile-Pen-Tyr-Thr-Asn-Arg-Dab-Asn-^DDab-Lys-Dab-Dab-Cys-Tyr] (H-V[Hyp]I[Pen]YTNR[Dab]N[dDab]K[Dab][Dab]CY-OH; disulfide 4-15) are 0.125 µg/mL, 0.125 µg/mL, 0.25 µg/mL and <1%.
In the same order, the values of `CC[C@H](C)[C@H](NC(=O)[C@@H]1C[C@@H](O)CN1C(=O)[C@@H](N)C(C)C)C(=O)N[C@@H]1C(=O)N[C@@H](Cc2ccc(O)cc2)C(=O)N[C@@H](CO)C(=O)N[C@@H](CC(N)=O)C(=O)N[C@@H](CCCNC(=N)N)C(=O)N[C@@H](CCN)C(=O)N[C@@H]([C@@H](C)O)C(=O)N[C@H](CCN)C(=O)N[C@@H](CO)C(=O)N[C@@H](CCN)C(=O)N[C@@H](CCN)C(=O)N[C@H](C(=O)N[C@@H](Cc2ccc(O)cc2)C(=O)O)CSSC1(C)C` [Example 44, Val-Hyp-Ile-Pen-Tyr-Ser-Asn-Arg-Dab-Thr-^DDab-Ser-Dab-Dab-Cys-Tyr] (H-V[Hyp]I[Pen]YSNR[Dab]T[dDab]S[Dab][Dab]CY-OH; disulfide 4-15) are 0.25 µg/mL, 0.125 µg/mL, 0.25 µg/mL and <1%.
As for `CC[C@H](C)[C@H](NC(=O)[C@@H]1C[C@@H](O)CN1C(=O)[C@@H](NC(=N)N)C(C)C)C(=O)N[C@@H]1C(=O)N[C@@H](Cc2ccc(O)cc2)C(=O)N[C@@H]([C@@H](C)O)C(=O)N[C@@H](CC(N)=O)C(=O)N[C@@H](CCCNC(=N)N)C(=O)N[C@@H](CCN)C(=O)N[C@@H]([C@@H](C)O)C(=O)N[C@H](CCN)C(=O)N[C@@H](CCCCN)C(=O)N[C@@H](CCN)C(=O)N[C@@H](CCCNC(N)=O)C(=O)N[C@H](C(=O)N[C@@H](Cc2ccc(O)cc2)C(=O)O)CSSC1(C)C` [Example 98, Gua-Val-Hyp-Ile-Pen-Tyr-Thr-Asn-Arg-Dab-Thr-^DDab-Lys-Dab-Cit-Cys-Tyr] ({Val(Nα-amidino)}-[Hyp]I[Pen]YTNR[Dab]T[dDab]K[Dab][Cit]CY-OH; disulfide 3-14), in data set [1], the “Escherichia coli ATCC 25922 MIC” value was 0.25 µg/mL. The “Escherichia coli MCR-1 Af45 MIC” value in data set [2] was determined as 0.125 µg/mL. For the same molecule, the “Klebsiella pneumoniae SSI3010 MIC” value in data set [3] is 0.5 µg/mL. Also, the “Hemolysis at 0.2 g/L” value in data set [4] is recorded as <1%.
In the same order, the values of `CC[C@H](C)[C@H](NC(=O)[C@@H]1C[C@@H](O)CN1C(=O)[C@@H](N)C(C)C)C(=O)N[C@H]1CCC(=O)NCC[C@@H](C(=O)N[C@@H](Cc2ccc(O)cc2)C(=O)O)NC(=O)[C@H](CCN)NC(=O)[C@H](CCN)NC(=O)[C@H](CCCCN)NC(=O)[C@@H](CCN)NC(=O)[C@H]([C@@H](C)O)NC(=O)[C@H](CCN)NC(=O)[C@H](CCCNC(=N)N)NC(=O)[C@H](CC(N)=O)NC(=O)[C@H](CO)NC(=O)[C@H](Cc2ccc(O)cc2)NC1=O` [Example 79, Val-Hyp-Ile-Glu-Tyr-Ser-Asn-Arg-Dab-Thr-^DDab-Lys-Dab-Dab-Dab-Tyr] (H-V[Hyp]IEYSNR[Dab]T[dDab]K[Dab][Dab][Dab]Y-OH; lactam 4-15) are 0.125 µg/mL, 0.0625 µg/mL, 0.25 µg/mL and <1%.
The like results for `CC[C@H](N)C(=O)N1C[C@H](O)C[C@H]1C(=O)N[C@H](C(=O)N[C@@H]1C(=O)N[C@@H](Cc2ccc(O)cc2)C(=O)N[C@@H](CO)C(=O)N[C@@H](CC(N)=O)C(=O)N[C@@H](CCCNC(=N)N)C(=O)N[C@@H](CCN)C(=O)N[C@@H]([C@@H](C)O)C(=O)N[C@H](CCN)C(=O)N[C@@H](CCCCN)C(=O)N[C@@H](CCN)C(=O)N[C@@H](CCN)C(=O)N[C@H](C(=O)N[C@@H](Cc2ccc(O)cc2)C(=O)O)CSSC1(C)C)[C@@H](C)CC` [Example 2, Abu-Hyp-Ile-Pen-Tyr-Ser-Asn-Arg-Dab-Thr-^DDab-Lys-Dab-Dab-Cys-Tyr] (H-[Abu][Hyp]I[Pen]YSNR[Dab]T[dDab]K[Dab][Dab]CY-OH; disulfide 4-15) were, in that order, 0.25 µg/mL, 0.125 µg/mL, 0.25 µg/mL and <1%.
The like results for `CC[C@H](C)[C@H](NC(=O)[C@@H]1C[C@@H](O)CN1C(=O)[C@@H](NC(=N)N)C(C)C)C(=O)N[C@@H]1C(=O)N[C@@H](Cc2ccc(O)cc2)C(=O)N[C@@H](CCN)C(=O)N[C@@H](CC(N)=O)C(=O)N[C@@H](CCCNC(=N)N)C(=O)N[C@@H](CCN)C(=O)N[C@@H]([C@@H](C)O)C(=O)N[C@H](CCN)C(=O)N[C@@H](CCCN)C(=O)N[C@@H]([C@@H](C)O)C(=O)N[C@@H](CO)C(=O)N[C@H](C(=O)N[C@@H](Cc2ccc(O)cc2)C(=O)O)CSSC1(C)C` [Example 130, Gua-Val-Hyp-Ile-Pen-Tyr-Dab-Asn-Arg-Dab-Thr-^DDab-Orn-Thr-Ser-Cys-Tyr] ({Val(Nα-amidino)}-[Hyp]I[Pen]Y[Dab]NR[Dab]T[dDab][Orn]TSCY-OH; disulfide 3-14) were, in that order, 0.125 µg/mL, 0.125 µg/mL, 0.25 µg/mL and <1%.
Take `CC[C@H](C)[C@H](NC(=O)[C@@H]1C[C@@H](O)CN1C(=O)[C@@H](NC(=N)N)C(C)C)C(=O)N[C@H]1CCNC(=O)CC[C@@H](C(=O)N[C@@H](Cc2ccc(O)cc2)C(=O)O)NC(=O)[C@H](CCN)NC(=O)[C@H](CCN)NC(=O)[C@H](CCN)NC(=O)[C@@H](CCN)NC(=O)[C@H]([C@@H](C)O)NC(=O)[C@H](CCN)NC(=O)[C@H](CCCNC(=N)N)NC(=O)[C@H](CC(N)=O)NC(=O)[C@H]([C@@H](C)O)NC(=O)[C@H](Cc2ccc(O)cc2)NC1=O` [Example 135, Gua-Val-Hyp-Ile-Dab-Tyr-Thr-Asn-Arg-Dab-Thr-^DDab-Dab-Dab-Dab-Glu-Tyr] ({Val(Nα-amidino)}-[Hyp]I[Dab]YTNR[Dab]T[dDab][Dab][Dab][Dab]EY-OH; lactam 3-14): the “Escherichia coli ATCC 25922 MIC” value in data set [1] came to 0.125 µg/mL. Further, the “Escherichia coli MCR-1 Af45 MIC” value in data set [2] was 0.0625 µg/mL. The “Klebsiella pneumoniae SSI3010 MIC” value in data set [3] worked out at 0.125 µg/mL. For the same molecule, in data set [4], the “Hemolysis at 0.2 g/L” value is recorded as <1%.
Take `CC[C@H](C)[C@H](NC(=O)[C@@H]1C[C@@H](O)CN1C(=O)[C@@H](N)C(C)C)C(=O)N[C@@H]1C(=O)N[C@@H](Cc2ccc(O)cc2)C(=O)N[C@@H](CO)C(=O)N[C@@H](CC(N)=O)C(=O)N[C@@H](CCCNC(=N)N)C(=O)N[C@@H](CCN)C(=O)N[C@@H]([C@@H](C)O)C(=O)N[C@H](CCN)C(=O)N[C@@H](Cc2ccc(O)cc2)C(=O)N[C@@H](CCN)C(=O)N[C@@H](CCN)C(=O)N[C@H](C(=O)N[C@@H](Cc2ccc(O)cc2)C(=O)O)CSSC1(C)C` [Example 41, Val-Hyp-Ile-Pen-Tyr-Ser-Asn-Arg-Dab-Thr-^DDab-Tyr-Dab-Dab-Cys-Tyr] (H-V[Hyp]I[Pen]YSNR[Dab]T[dDab]Y[Dab][Dab]CY-OH; disulfide 4-15): the “Escherichia coli ATCC 25922 MIC” value in data set [1] was determined as 0.125 µg/mL. Also, the “Escherichia coli MCR-1 Af45 MIC” value in data set [2] came to 0.125 µg/mL. In data set [3], the “Klebsiella pneumoniae SSI3010 MIC” value came to 0.25 µg/mL. Besides, the “Hemolysis at 0.2 g/L” value in data set [4] is <1%.
